35 compounds from patent US8618138B2, “Indole amide derivatives and related compounds for use in the treatment of neurodegenerative diseases” (Katholieke Universiteit Leuven, K.U. Leuven R&D, priority 2009, dated 2013) can be followed below.

Molecules are shown by their SMILES.

Broadly, the EC50 is the concentration giving half of the maximal effect.

In this test the test system is M17-TAU P301L cells. As to the kind of experiment: TAU cytotoxicity assay: LDH leakage of retinoic acid incubated M17-TAU P301L cells. Type of test: cell-based, human. The following applies: Homo sapiens, 168 h, reduction of LDH activity of retinoic acid incubated M17-TAU P301L cells, 7 days. The source says:
A TAU expression plasmid was constructed by sub-cloning the cDNA of human TAU-P301 L (encoding for TAU with proline 301 substituted by a leucine residue) into mammalian expression vector pcDNA3.1 resulting in plasmid pcDNA3.1-TAU P301L. Plasmids pcDNA3.1 and pcDNA3.1-TAU P301L were transfected to human neuroblastoma cells ([…]; ATCC No. CRL-2267) and independent clonal lines with the plasmids stably integrated into the genome were selected. […] Expression of the TAU P301L genes in the cell lines was confirmed by Western analysis.
In degenerated or dead cells lactate dehydrogenase (LDH) is leaked out of the cells into the extracellular environment due to a loss of plasma-membrane integrity. This principle was used to determine cytotoxicity by quantifying the level of leaked LDH into the growth medium.
The detailed method for determining TAU cytotoxicity was as follows: From appropriate precultures of M17-3.1 and M17-TAU(P301L) cells were seeded at 2500 cells/cm2 in Optimem Reduced Serum without phenol red (Gibco, Cat. 31985-047) supplemented with 1% fetal calf serum, 1 mM sodium pyruvate, 1× non-essential amino acids, 500 μg/ml G418 0.5× antibiotic/antimycotic. After 3 h of incubation at 37° C./5% CO2 1 volume of Optimem Reduced Serum (same as described above; except without fetal calf serum) supplemented with 2.5 μM retinoic acid (RA) was added. The cells were further incubated for 7 days. Subsequently, LDH activity was determined using Promega Cytotox 96 Non-Radioactive cytotoxicity assay, (Cat. G1780) according the supplier's instructions.
The M17-TAU P301L cell line made it possible to assess the ability of novel compounds to counteract TAU cytotoxicity. […] These measurements were used to calculate EC50 values of table 2.
Exemplary compounds of the present invention are shown in table 2, with their chemical name and their EC50 value (expressed in nM) as determined from example 196 in the Tau-induced toxicity experiment.
(LDH in the medium is a marker of cell lysis.)
The compound `O=C(NCCc1c[nH]c2ccc(Cl)cc12)c1cc(Cc2cccc(C(F)(F)F)c2)on1` [Example D30, N-(2-(5-chloro-1H-indol-3-yl)ethyl)-5-(3-(trifluoromethyl)benzyl)isoxazole-3-carboxamide] returned an EC50 of 0.042 µM. The compound `O=C(NCCc1c[nH]c2ccccc12)c1cc(Cc2cccc(F)c2)on1` [Example D31, N-(2-(1H-indol-3-yl)ethyl)-5-(3-fluorobenzyl)isoxazole-3-carboxamide] showed an EC50 of 0.044 µM. With `COc1ccc2[nH]cc(CCNC(=O)c3sc(-c4ccc(C)cc4)nc3C)c2c1` [Example D32, N-(2-(5-methoxy-1H-indol-3-yl)ethyl)-4-methyl-2-p-tolylthiazole-5-carboxamide] the figure was 0.05 µM; with `CCCc1cc(-c2nc(C)c(C(=O)NCCc3c[nH]c4ccccc34)s2)ccn1` [Example D33, N-(2-(1H-indol-3-yl)ethyl)-4-methyl-2-(2-propylpyridin-4-yl)thiazole-5-carboxamide], 0.056 µM; with `O=C(NCc1c[nH]c2ccc(Cl)cc12)c1cc(Cc2cccc(F)c2)on1` [Example D34, N-((5-chloro-1H-indol-3-yl)methyl)-5-(3-fluorobenzyl)isoxazole-3-carboxamide], 0.059 µM. In the case of `O=C(NCCCc1c[nH]c2ccc(Cl)cc12)c1cc(Cc2cccc(F)c2)on1` [Example D35, N-(3-(5-chloro-1H-indol-3-yl)propyl)-5-(3-fluorobenzyl)isoxazole-3-carboxamide] it was 0.06 µM; in that of `O=C(NCCc1c[nH]c2ccc(Cl)cc12)c1cc(-c2ccccc2)on1` [Example D36, N-(2-(5-chloro-1H-indol-3-yl)ethyl)-5-phenylisoxazole-3-carboxamide], 0.061 µM; in that of `Cc1ccc(-c2nc(C)c(C(=O)NCCc3c[nH]c4ccc(F)cc34)s2)cc1` [Example D37, N-(2-(5-fluoro-1H-indol-3-yl)ethyl)-4-methyl-2-p-tolylthiazole-5-carboxamide], 0.061 µM. For `O=C(NCCc1c[nH]c2ccc(Cl)cc12)c1cc(-c2cccc3c2OCCO3)on1` [Example D38, N-(2-(5-chloro-1H-indol-3-yl)ethyl)-5-(2,3-dihydrobenzo[b][1,4]dioxin-5-yl)isoxazole-3-carboxamide], the response was half-maximal at 0.08 µM (EC50). `Cc1nc(NCCc2ccccc2)sc1C(=O)NCCc1c[nH]c2ccccc12` [Example D39, N-(2-(1H-indol-3-yl)ethyl)-4-methyl-2-(phenethylamino)thiazole-5-carboxamide] registered an EC50 of 0.087 µM. Turning to `CCc1ccc(N2CCC(C(=O)NCCc3c[nH]c4ccc(Cl)cc34)C2=O)cc1` (centres unmarked) [Example D40, N-(2-(5-chloro-1H-indol-3-yl)ethyl)-1-(4-ethylphenyl)-2-oxopyrrolidine-3-carboxamide], the EC50 came out at 0.091 µM. In turn, `O=C(NCCc1c[nH]c2ccc(Cl)cc12)c1cc(Cc2ccncc2)on1` [Example D41, N-(2-(5-chloro-1H-indol-3-yl)ethyl)-5-(pyridin-4-ylmethyl)isoxazole-3-carboxamide] had an EC50 of 0.091 µM. Take `O=C(NCCc1c[nH]c2ccc(Cl)cc12)c1cc(Cn2cccn2)on1` [Example D42, 5-((1H-pyrazol-1-yl)methyl)-N-(2-(5-chloro-1H-indol-3-yl)ethyl)isoxazole-3-carboxamide]: the response was half-maximal at 0.092 µM (EC50). With `O=C(NCCc1c[nH]c2ccc(Cl)cc12)C1=NOC(Cc2ccccc2)C1` (centres unmarked) [Example D43, 5-benzyl-N-(2-(5-chloro-1H-indol-3-yl)ethyl)-4,5-dihydroisoxazole-3-carboxamide] the figure was 0.094 µM; with `O=C(NCCc1c[nH]c2ccc(Cl)cc12)c1cn(C2CCCCC2)nn1` [Example D44, N-(2-(5-chloro-1H-indol-3-yl)ethyl)-1-cyclohexyl-1H-1,2,3-triazole-4-carboxamide], 0.108 µM; with `Cc1ccc(-c2nc(C)c(C(=O)NCCc3c[nH]c4ccc(Cl)cc34)s2)cc1` [Example D45, N-(2-(5-chloro-1H-indol-3-yl)ethyl)-4-methyl-2-p-tolylthiazole-5-carboxamide], 0.113 µM.

Consider `Cc1nc(-c2ccccc2)sc1C(=O)NCCc1c[nH]c2ccc(Cl)cc12` [Example D46, N-(2-(5-chloro-1H-indol-3-yl)ethyl)-4-methyl-2-phenylthiazole-5-carboxamide], for which the EC50 was determined as 0.123 µM. With `O=C(NCCc1c[nH]c2cc(F)ccc12)c1cc(Cc2cccc(F)c2)on1` [Example D47, N-(2-(6-fluoro-1H-indol-3-yl)ethyl)-5-(3-fluorobenzyl)isoxazole-3-carboxamide] the figure was 0.132 µM.

As to `CCc1ccc(N2CCC(C(=O)NCCc3c[nH]c4ccc(C)cc34)C2=O)cc1` (centres unmarked) [Example D48, 1-(4-ethylphenyl)-N-(2-(5-methyl-1H-indol-3-yl)ethyl)-2-oxopyrrolidine-3-carboxamide], it took 0.138 µM to reach a half-maximal effect (EC50). In the case of `COc1ccc(-c2cc(C(=O)NCCc3c[nH]c4ccc(Cl)cc34)no2)cc1` [Example D49, N-(2-(5-chloro-1H-indol-3-yl)ethyl)-5-(4-methoxyphenyl)isoxazole-3-carboxamide] it was 0.14 µM; in that of `O=C(NCCc1c[nH]c2ccc(Cl)cc12)C1CC(c2ccccc2)=NO1` (centres unmarked) [Example D50, N-(2-(5-chloro-1H-indol-3-yl)ethyl)-3-phenyl-4,5-dihydroisoxazole-5-carboxamide], 0.151 µM; in that of `Cn1cc(CCNC(=O)c2cc(Cc3cccc(F)c3)on2)c2cc(Cl)ccc21` [Example D51, N-(2-(5-chloro-1-methyl-1H-indol-3-yl)ethyl)-5-(3-fluorobenzyl)isoxazole-3-carboxamide], 0.157 µM. In the case of `O=C(NCCc1c[nH]c2ccc(Cl)cc12)c1nnc(-c2ccccc2)o1` [Example D52, N-(2-(5-chloro-1H-indol-3-yl)ethyl)-5-phenyl-1,3,4-oxadiazole-2-carboxamide] it was 0.158 µM. `O=C(NCCc1c[nH]c2ccc(Cl)cc12)c1ncc(-c2ccccc2)o1` [Example D53, N-(2-(5-chloro-1H-indol-3-yl)ethyl)-5-phenyloxazole-2-carboxamide] gave an EC50 of 0.171 µM.

Consider `O=C(NCCc1c[nH]c2ccc(Cl)cc12)c1cn(Cc2ccccc2)nn1` [Example D54, 1-benzyl-N-(2-(5-chloro-1H-indol-3-yl)ethyl)-1H-1,2,3-triazole-4-carboxamide], for which the EC50 was determined as 0.173 µM. The compound `O=C(NCCc1c[nH]c2ccc(Cl)cc12)C1=NOC(c2ccccc2)C1` (centres unmarked) [Example D55, N-(2-(5-chloro-1H-indol-3-yl)ethyl)-5-phenyl-4,5-dihydroisoxazole-3-carboxamide] showed an EC50 of 0.189 µM. In the case of `O=C(NCCc1c[nH]c2ccc(Cl)cc12)c1cc(-c2ccc(Cl)cc2)on1` [Example D56, N-(2-(5-chloro-1H-indol-3-yl)ethyl)-5-(4-chlorophenyl)isoxazole-3-carboxamide] it was 0.19 µM; in that of `Cc1ccc(-c2cc(C(=O)NCCc3c[nH]c4ccc(Cl)cc34)no2)cc1` [Example D57, N-(2-(5-chloro-1H-indol-3-yl)ethyl)-5-p-tolylisoxazole-3-carboxamide], 0.195 µM; in that of `O=C(NCCc1c[nH]c2ccc(Cl)cc12)C1=N[C@H](C2CCCCC2)CO1` [Example D58, (R)-N-(2-(5-chloro-1H-indol-3-yl)ethyl)-4-cyclohexyl-4,5-dihydrooxazole-2-carboxamide], 0.202 µM. On to `O=C(NCCc1c[nH]c2ccc(Cl)cc12)C1=N[C@@H](C2CCCCC2)CO1` [Example D59, (S)-N-(2-(5-chloro-1H-indol-3-yl)ethyl)-4-cyclohexyl-4,5-dihydrooxazole-2-carboxamide], for which a half-maximal response (EC50) required 0.211 µM. The compound `O=C(NCCc1c[nH]c2ccc(Cl)cc12)c1nnc(Cc2ccccc2)o1` [Example D60, 5-benzyl-N-(2-(5-chloro-1H-indol-3-yl)ethyl)-1,3,4-oxadiazole-2-carboxamide] returned an EC50 of 0.213 µM. With `O=C(NCCc1c[nH]c2ccc(Cl)cc12)c1cc(CN2CCCC2)on1` [Example D61, N-(2-(5-chloro-1H-indol-3-yl)ethyl)-5-(pyrrolidin-1-ylmethyl)isoxazole-3-carboxamide] the figure was 0.227 µM. With `Cc1oc(-c2ccccc2)nc1C(=O)NCCc1c[nH]c2ccc(Cl)cc12` [Example D62, N-(2-(5-chloro-1H-indol-3-yl)ethyl)-5-methyl-2-phenyloxazole-4-carboxamide] the figure was 0.237 µM; with `O=C(NCCc1c[nH]c2ccc(Cl)cc12)N1CCC(c2ccccc2)C1` (centres unmarked) [Example D63, N-(2-(5-chloro-1H-indol-3-yl)ethyl)-3-phenylpyrrolidine-1-carboxamide], 0.304 µM. Turning to `O=C(NCCc1c[nH]c2ccc(Cl)cc12)C1CCN(c2ccccc2)C1=O` (centres unmarked) [Example D64, N-(2-(5-chloro-1H-indol-3-yl)ethyl)-2-oxo-1-phenylpyrrolidine-3-carboxamide], the EC50 came to 0.313 µM.
